According to the CheMixHub ionic liquid set:

Assay: xn = mol fraction of the nth substance listed

CCCC[n+]1ccccc1.N#C[N-]C#N + O
100 kPa
Details | electrical conductivity [S/m] | viscosity [mPa·s]
298.15 K, x1 = 0.9563 | – | 30.06
298.15 K, x1 = 0.9642 | 0.931 | –
303.15 K, x1 = 0.9189 | 1.17 | –
303.15 K, x1 = 0.9338 | 1.14 | –
303.15 K, x1 = 0.9488 | 1.12 | –
303.15 K, x1 = 0.9563 | – | 24.67
313.15 K, x1 = 0.926 | – | 16.69
313.15 K, x1 = 0.9563 | – | 17.57
313.15 K, x1 = 0.9642 | 1.54 | –
318.15 K, x1 = 0.926 | – | 14.38
318.15 K, x1 = 0.9338 | 1.89 | –
318.15 K, x1 = 0.9722 | – | 15.54
323.15 K, x1 = 0.9563 | – | 12.69
323.15 K, x2 = 0.01155 | – | 13.56
328.15 K, x1 = 0.926 | – | 10.62
328.15 K, x1 = 0.9412 | – | 10.83
333.15 K, x1 = 0.9488 | 2.75 | –
333.15 K, x1 = 0.9563 | – | 9.77
333.15 K, x1 = 0.9642 | 2.7 | –
338.15 K, x1 = 0.9412 | – | 8.47

CCCCCC(=O)[O-].C[NH2+]Cc1ccccc1 + CN(C)C=O
viscosity [mPa·s], 101 kPa
Details | 293.15 K | 298.15 K | 303.15 K | 308.15 K | 313.15 K | 318.15 K | 323.15 K | 328.15 K
x1 = 0.004888 | 0.957 | 0.916 | 0.879 | 0.846 | 0.817 | 0.791 | 0.767 | 0.746
x1 = 0.008422 | 0.969 | 0.926 | 0.887 | 0.854 | 0.824 | 0.797 | 0.772 | 0.75
x1 = 0.0141 | 0.992 | 0.946 | 0.905 | 0.869 | 0.837 | 0.809 | 0.784 | 0.76
x1 = 0.01792 | 1.009 | 0.961 | 0.918 | 0.881 | 0.847 | 0.818 | 0.791 | 0.767
x1 = 0.02131 | 1.026 | 0.975 | 0.93 | 0.891 | 0.857 | 0.826 | 0.798 | 0.773
x1 = 0.02717 | 1.052 | 0.998 | 0.95 | 0.909 | 0.873 | 0.84 | 0.812 | 0.786
x1 = 0.03049 | 1.072 | 1.016 | 0.966 | 0.923 | 0.884 | 0.85 | 0.82 | 0.793
x1 = 0.03458 | 1.099 | 1.038 | 0.985 | 0.94 | 0.899 | 0.863 | 0.831 | 0.803
